Laboratory results reported in ChEMBL document CHEMBL4196049, “β,γ-diamino acids as building blocks for new analogues of Gramicidin S: Synthesis and biological activity” (Eur J Med Chem, 2018).
≈ marks a conversion by molar mass, not a printed value. Non-standard residues stand in square brackets, D forms with d. Residues, ends and D or L forms follow the SMILES beside them. Orn = NCCC[C@H](N)C(=O)O

Columns and labels:
[1] = Hemolytic activity in human erythrocytes at 50 ug/ml after 30 mins relative to control; assay type: ADME, cell-based, Erythrocyte; details: read-out: Activity
[2] = Hemolytic activity in human erythrocytes at 100 ug/ml after 30 mins relative to control; assay type: ADME, cell-based, Erythrocyte; details: read-out: Activity
[3] = test system: Bacillus subtilis; experiment: Antibacterial activity against Bacillus subtilis subsp. subtilis CIP 52.65 after 48 hrs by two-fold serial dilution method; assay type: functional; details: CIP 52.65, 48 h
[4] = test system: Streptococcus salivarius; experiment: Antibacterial activity against Streptococcus salivarius CIP 102503 after 48 hrs by two-fold serial dilution method; assay type: functional; details: CIP 102503, 48 h
[5] = test system: Enterococcus faecalis; experiment: Antibacterial activity against Enterococcus faecalis CIP 103214 after 48 hrs by two-fold serial dilution method; assay type: functional; details: CIP 103214, 48 h
[6] = test system: Escherichia coli; experiment: Antibacterial activity against Escherichia coli CIP 53.126 ATCC 8739 after 48 hrs by two-fold serial dilution method; assay type: functional; details: ATCC 8739 = CIP 53.126, 48 h
[7] = test system: Enterococcus faecium; experiment: Antibacterial activity against Enterococcus faecium CIP 103014 after 48 hrs by two-fold serial dilution method; assay type: functional; details: CIP 103014, 48 h
[8] = test system: Bacillus cereus; experiment: Antibacterial activity against Bacillus cereus CIP 66.24 after 48 hrs by two-fold serial dilution method; assay type: functional; details: CIP 66.24, 48 h
[9] = test system: Pseudomonas aeruginosa; experiment: Antibacterial activity against Pseudomonas aeruginosa CIP 82.118 ATCC 9027 after 48 hrs by two-fold serial dilution method; assay type: functional; details: CIP 82.118 ATCC 9027, 48 h
[10] = test system: Enterococcus faecalis; experiment: Antibacterial activity against Enterococcus faecalis CIP 103015 after 48 hrs by two-fold serial dilution method; assay type: functional; details: CIP 103015, 48 h
[11] = test system: Staphylococcus aureus; experiment: Antibacterial activity against Staphylococcus aureus subsp. aureus CIP 4.83 ATCC 6538 after 48 hrs by two-fold serial dilution method; assay type: functional; details: CIP 4.83 ATCC 6538, 48 h

CC(C)C[C@@H]1NC(=O)[C@H](CCCN)NC(=O)[C@H](C(C)C)NC(=O)[C@@H]2CCCN2C(=O)[C@@H](Cc2ccccc2)NC(=O)[C@H](CC(C)C)NC(=O)[C@H](CCCN)NC(=O)[C@H](C(C)C)NC(=O)[C@@H]2CCCN2C(=O)[C@@H](Cc2ccccc2)NC1=O (cyclo(L[dF]PV[Orn]L[dF]PV[Orn]))
hemolysis at 0.5 h, 50 ug/ml [1]: 74% | hemolysis at 0.5 h, 100 ug/ml [2]: 83%

CC(C)C[C@@H]1NC(=O)[C@H](CCCN)NC(=O)[C@H](C(C)C)NC(=O)[C@@H]2CCCN2C(=O)[C@@H](Cc2ccccc2)NC(=O)[C@H](CC(C)C)NC(=O)[C@H](CCCN)NC(=O)[C@H](C(C)C)NC(=O)[C@@H]2CCCN2C(=O)[C@@H](Cc2ccccc2)NC1=O (cyclo(V[Orn]L[dF]PV[Orn]L[dF]P))
MIC [3]: 3.12 µg/mL (≈ 2.74 µM) | MIC [4]: 3.12 µg/mL (≈ 2.74 µM) | MIC [5]: 3.12 µg/mL (≈ 2.74 µM) | MIC [6]: 12.5 µg/mL (≈ 11 µM) | MIC [7]: 3.12 µg/mL (≈ 2.74 µM) | MIC [8]: 6.25 µg/mL (≈ 5.48 µM) | MIC [9]: ≥ 100 µg/mL | MIC [10]: 3.12 µg/mL (≈ 2.74 µM) | MIC [11]: 3.12 µg/mL (≈ 2.74 µM)
